Assay results reported in paper PMC9415951 (Viruses, 2022).
Entries after “also recorded” stand apart in the source; their conditions may differ. Counter-ions that a name gives are not always drawn. Like-named read-outs stand apart in the source and are kept apart here.

Legend:
[1] = target: recombinant human factor Xa (Homo sapiens, UniProt P00742); experiment: Factor Xa inhibition assay (chromogenic substrate S-2765); format: biochemical
SARS-CoV-2 [2] = experiment: microbe, parasite or virus in culture; format: cell-based; conditions: for protective effect against SARS-CoV-2 infectivity (in words): preincubation 2 h, crystal violet 72 h after infection; for inhibition at 100 µM: Severe acute respiratory syndrome coronavirus 2, Vero
[3] = Cytotoxicity assay (XTT) on VERO cells; format: cell-based, African green monkey; conditions: African green monkey
VERO cells = experiment: Cytotoxicity assay (XTT) on VERO cells; format: cell-based, African green monkey; conditions: 100 µM, 72 h
bovine thrombin = bovine thrombin (Bos taurus, UniProt P00735); experiment: Thrombin inhibition assay (chromogenic substrate S-2238); format: biochemical
[4] = Stability in phosphate buffer solution pH 7.4 (RP-HPLC); format: physicochemical; conditions: for residual, % of the starting concentration: pH 7.4 buffer
SARS-CoV-2 [5] = format: cell-based; conditions: 100 µM, virus coincubated with compound before infecting VERO cells
[6] = Stability in pooled human serum (RP-HPLC); format: in vitro ADME; conditions: for residual, % of the starting concentration: human serum
[7] = VERO cells, confluent monolayers (mock-infected), 72 h, XTT, read-out: VERO Cells Toxicity, CC50
[8] = Cheng-Prousoff from IC50, mean of three measurements, read-out: Enzyme Inhibition, Ki, Factor Xa
[9] = Cheng-Prousoff from IC50, mean of three measurements, read-out: Enzyme Inhibition, Ki, Thrombin

recombinant human factor Xa, sequence (P00742 235-488 limits assumed): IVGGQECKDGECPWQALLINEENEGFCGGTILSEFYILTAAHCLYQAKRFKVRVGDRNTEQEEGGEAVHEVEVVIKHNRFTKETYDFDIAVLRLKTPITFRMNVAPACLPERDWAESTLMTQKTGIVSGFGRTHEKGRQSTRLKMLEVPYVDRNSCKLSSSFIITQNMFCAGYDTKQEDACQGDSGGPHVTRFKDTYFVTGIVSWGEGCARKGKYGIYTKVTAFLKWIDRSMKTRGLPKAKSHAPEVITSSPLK
recombinant human factor Xa, sequence (P00742 41-179 partner limits assumed): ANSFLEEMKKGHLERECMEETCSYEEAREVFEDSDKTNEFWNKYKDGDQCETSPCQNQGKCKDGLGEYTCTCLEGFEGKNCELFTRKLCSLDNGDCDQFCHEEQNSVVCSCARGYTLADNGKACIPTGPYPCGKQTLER

SMILES | inhibition mechanism, fXa ([1]; time-dependent inhibition) | protective effect against SARS-CoV-2 infectivity (in words) (SARS-CoV-2 [2]; 100 µM) | CC50 at 72 h [3, 7] [nM] | VERO Cells Toxicity, Cytotoxicity at 100 µM (% of nonviable cells) (VERO cells; XTT, mock-infected VERO cells) [%] | inhibition mechanism, thrombin (bovine thrombin; time-dependent inhibition) | Ki [1, 8] [nM] | residual, % of the starting concentration ([4]; 0 h) [%] | residual, % of the starting concentration ([4]; 1 h) [%] | residual, % of the starting concentration ([4]; 4 h) [%] | residual, % of the starting concentration ([4]; 12 h) [%] | residual, % of the starting concentration ([4]; 24 h) [%] | effect on SARS-CoV-2 infectivity (in words) (SARS-CoV-2 [5]) | residual, % of the starting concentration ([6]; 0 h) [%] | residual, % of the starting concentration ([6]; 1 h) [%] | CC50 at 72 h [3] [nM] | VERO Cells Toxicity, Cytotoxicity at 100 µM (% of nonviable cells) (VERO cells; African green monkey) [%] | Ki (bovine thrombin; [9]) [nM] | other results
O=C(NC[C@H]1CN(c2ccc(N3CCOCC3=O)cc2)C(=O)O1)c1ccc(Cl)s1 [Rivaroxaban, rivaroxaban] | reversible inhibitors | did not show any effect; also recorded: did not show any ability to reduce the virus infectivity | > 200000 | 29.4 ± 0.8 | reversible inhibitors | – | – | – | – | – | – | – | – | – | – | – | – | Ki (bovine thrombin): 12000 nM
N=C(N)N1CCC(C(=O)Nc2cccc(OCc3cc(-c4ccc(Cl)s4)on3)c2)CC1 [Compound 3] | – | completely inhibited; also recorded: statistically significant protective effects; also recorded: totally block SARS-CoV-2 entry | – | – | – | 15 | 100 | 98.8±0.5 | 98.1±1.5 | 97.5±0.5 | 97.9±1.0 | did decrease viral infectivity; also recorded: best candidate against the viral infection | 100 | 95.8±1.0 | – | – | – | Ki ([1]; Ki, factor Xa, time-dependent inhibition, incubation time 0 min): 20 ± 7 nM; Ki ([1]; Ki, factor Xa, time-dependent inhibition, incubation time 15 min): 17 ± 8 nM; hydrolytic degradation after 24 h ([4]; PBS pH 7.4, 24 h): less than 10%; residual, % of the starting concentration ([6]; 4 h): 96.6±1.5%; residual, % of the starting concentration ([6]; 12 h): 93.2±2.5%; residual, % of the starting concentration ([6]; 24 h): 96.8±3.0%; hydrolytic degradation after 24 h ([6]; pooled blood human serum, 24 h): less than 10%; inhibition at 100 µM (SARS-CoV-2 [2]; read-out: inhibition of virus infectivity): 100%; inhibitory effects on SARS-CoV-2 infection (SARS-CoV-2 [2]; lower concentrations 3–50 µM, preincubation, VERO cells): ca. 30%; CC50 at 72 h ([3]; 72 h, XTT, read-out: VERO Cells Toxicity, CC50): 155000 ± 16000 nM; time dependence of inhibition constant (bovine thrombin; preincubation 0, 15, 30 min): did not show any significant time-dependent change in inhibition constant
CC(C)N1CCC(C(=O)Nc2ccccc2OCc2cc(-c3ccc(Cl)s3)on2)CC1 [Compound 2] | – | did not show any ability to reduce the virus infectivity | – | – | – | 0.3 | – | – | – | – | – | – | – | – | > 200000 | 7.45 ± 0.24 | – | –
N=C(N)N1CCC(C(=O)Nc2ccccc2OCc2cc(-c3ccc(Cl)s3)on2)CC1 [Compound 1] | – | weak (nonsignificant) protective effect | – | – | – | 2 | – | – | – | – | – | did decrease viral infectivity | – | – | > 200000 | 20.3 ± 0.9 | 6820 | –
[H]/N=C(/N)c1ccc(NCc2nc3cc(C(=O)N(CCC(=O)O)c4ccccn4)ccc3n2C)cc1 [Dabigatran, dabigatran] | reversible inhibitors | did not show any effect; also recorded: did not show any ability to reduce the virus infectivity | > 200000 | 18.3 ± 0.8 | – | – | – | – | – | – | – | – | – | – | – | – | – | inhibition mechanism, thrombin (bovine thrombin): reversible inhibitors
N=C(N)c1ccc2cc(OC(=O)c3ccc(N=C(N)N)cc3)ccc2c1 [Nafamostat, Nafamostat mesylate] | covalent inhibitor | did not achieve statistically significant activity | > 200000 | 16.0 ± 0.8 | covalent inhibitor | – | 100 | 87.6±1.2 | 81.6±1.8 | 73.8±3.0 | 61.4±2.8 | – | 100 | 21.2±5.2 | – | – | 10 | Ki ([1]; incubation time 0 min, read-out: Ki, factor Xa, time-dependent inhibition): 363 ± 6 nM; Ki ([1]; incubation time 15 min, read-out: Ki, factor Xa, time-dependent inhibition): 340 ± 10 nM; Ki ([1]; incubation time 30 min, read-out: Ki, factor Xa, time-dependent inhibition): 225 ± 9 nM; residual, % of the starting concentration ([4]; 0.5 h): 95.1±0.5%; residual, % of the starting concentration ([4]; 2 h): 84.9±1.0%; residual, % of the starting concentration ([4]; 8 h): 78.4±2.5%; half-life at 100 µM ([4]; phosphate buffer solution (PBS), PBS pH 7.4, 37 °C): ~45 h; residual, % of the starting concentration ([6]; 0.5 h): 45.9±4.3%; residual, % of the starting concentration ([6]; 2 h): 5.1±3.3%; half-life at 100 µM ([6]; pooled human serum, 37 °C, read-out: half-life in human pooled blood serum): 0.267 h; protective effect against SARS-CoV-2 infectivity (in words) (SARS-CoV-2 [2]; 100 µM, listed as NAF): weak (nonsignificant) protective effect; cellular monolayer preserved (SARS-CoV-2 [2]; 100 µM, preincubation, crystal violet staining): around 60%; cells with SARS-CoV-2 detected (SARS-CoV-2 [2]; 100 µM, preincubation, immunofluorescence): ~ 25%; activity against SARS-CoV-2 infection over scalar concentrations (in words) (SARS-CoV-2 [2]; 3–100 µM, preincubation): not to have statistically significant activity; inhibition at 100 µM (SARS-CoV-2 [2]; read-out: reduction of viral entry (inhibition)): ~20%; inhibition of SARS-CoV-2 infection (SARS-CoV-2 [2]; whole range of test concentrations 3–100 µM, VERO cells): 15–20%; Ki (bovine thrombin; incubation time 0 min, read-out: Ki, thrombin, time-dependent inhibition): 77 nM; Ki (bovine thrombin; incubation time 15 min, read-out: Ki, thrombin, time-dependent inhibition): 13 nM; Ki (bovine thrombin; incubation time 30 min, read-out: Ki, thrombin, time-dependent inhibition): 5 nM
